US20050137209A1, “Treatment of neurologic disorders with inhibitors of 11beta-HSD1” (AGY Therapeutics, Inc., priority 2003, published 2005)

Key:
[1] = system: middle cerebral artery occlusion (MCAO) brain infarction; test: MCAO transient focal ischemia, carbenoxolone (Example 2); assay type: in vivo, rat
Excerpt: The method used is a middle cerebral artery (MCA) occlusion to induce temporary cerebral ischemia. It involves anesthetizing the rat, making an incision in the ventral neck region to isolate the common carotid artery and the internal and external carotid arteries. […] A silicone-coated mono filament is then inserted into the external carotid artery and woven through the artery into the internal carotid until it can occlude blood flow to the middle cerebral artery (MCA). The filament can then be tied in place (permanent occlusion) or removed after a short amount of time depending on the desired degree of ischemic damage (3 minutes to 2 hours). After removal of the filament, the external carotid stump is tied shut and the clamps removed to allow the return of blood flow to the brain. The incision was closed with wound clips. Post surgery, animals were observed until recovery from anesthesia. During the surgery, animals were kept on a thermostat-regulated heating pad to maintain the body and head temperatures at 37° C. To inhibit the blood from clotting 90 IU.kg^−1 Heparin was administered intravenously to the animal after occlusion of MCAO. The body core temperature of the animal was measured regularly, up to 1 day of recovery in some animals. […] Temperatures are measured manually using a rat probe. […] Infarction volume was measured by digital imaging and image analysis software. […]

[2] = system: middle cerebral artery occlusion (MCAO) brain infarction; test: MCAO transient focal ischemia, BVT 2733 (Example 1); assay type: in vivo; conditions: rat, 90 min MCAO, bolus 90 mg/kg at 4.5 h and 8.5 h post-occlusion, 24 h reperfusion
Description: BVT 2733 was tested in the following MCAO protocol. A middle cerebral artery (MCA) occlusion was used to induce temporary cerebral ischemia. It involves anesthetizing the rat, making an incision in the ventral neck region to isolate the common carotid artery and the internal and external carotid arteries. […] A silicone-coated mono filament is then inserted into the external carotid artery and woven through the artery into the internal carotid until it can occlude blood flow to the middle cerebral artery (MCA). The filament is removed after 90 min. After removal of the filament, the external carotid stump is tied shut and the clamps removed to allow the return of blood flow to the brain. The incision will be closed with wound clips. Post surgery, animals are observed until recovery from anesthesia.
During the surgery, animals are kept on a thermostat-regulated heating pad to maintain the body and head temperatures at 37° C. […]
The body core temperature of the animal is measured regularly, up to 1 day of recovery in some animals. […] Temperatures are measured manually using a rectal probe. […]
After 24 hours of reperfusion, the animals are sacrificed. […] Infarction volume was measured by digital imaging and image analysis software. Infarction volumes are determined in cortex and striatum and expressed as a percentage of the total brain volume. […]

human 11βHSD2 = target: T1, human 11βHSD2 (Homo sapiens, UniProt P80365); conditions: cited from earlier work
T1 sequence (P80365 1-405): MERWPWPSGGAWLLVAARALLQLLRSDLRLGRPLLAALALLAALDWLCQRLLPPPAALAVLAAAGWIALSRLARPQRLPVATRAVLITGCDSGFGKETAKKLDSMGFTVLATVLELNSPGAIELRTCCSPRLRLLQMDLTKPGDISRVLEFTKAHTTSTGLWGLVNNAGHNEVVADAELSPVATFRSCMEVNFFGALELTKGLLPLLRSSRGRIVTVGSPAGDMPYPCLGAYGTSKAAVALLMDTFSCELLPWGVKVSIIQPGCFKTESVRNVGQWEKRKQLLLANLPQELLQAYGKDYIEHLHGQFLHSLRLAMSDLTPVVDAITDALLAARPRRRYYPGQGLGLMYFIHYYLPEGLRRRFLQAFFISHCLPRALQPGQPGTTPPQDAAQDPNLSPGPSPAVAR

| Structure (SMILES) | neuroprotection ([1]; rat MCAO, carbenoxolone administered at 4 to 6 hours post-occlusion) | infarction volume in cortex and striatum as percentage of total brain volume, versus vehicle ([1]; rat, 90 min MCAO, bolus 20 mg at 5 min of reperfusion plus infusion 1.6 mg/h for 24 hours, TTC staining) | neuroprotection (FIG. 1) [2] | infarction volume in cortex and striatum as percentage of total brain volume, versus vehicle ([2]; TTC staining) | IC50 (human 11βHSD2) [µM] |
| --- | --- | --- | --- | --- | --- |
| CC1(C)[C@@H](OC(=O)CCC(=O)O)CC[C@]2(C)[C@H]3C(=O)C=C4[C@@H]5C[C@@](C)(C(=O)O)CC[C@]5(C)CC[C@@]4(C)[C@]3(C)CC[C@@H]12 [carbenoxolone] | potent neuroprotection | smaller infarction compared to vehicle treated rats | – | – | – |
| Cc1c(Cl)cccc1S(=O)(=O)Nc1nc(CC(=O)N2CCN(C)CC2)cs1 [BVT 2733, 3-Chloro-2-methyl-N-{4-[2-(4-methyl-piperazin-1-yl)-2-oxo-ethyl]-thiazol-2-yl}-benzenesulfonamide] | – | – | potent and significant neuroprotection | smaller infarction compared to vehicle treated rats | > 10 |
